From patent US5767096A, “Bromotiacumicin compounds” (Abbott Laboratories, priority 1996, dated 1998)
In brackets after ≈: the same amount, converted by molar mass. Read-outs that look alike come from different tables or passages of the source.

Key:
Assay type in all cases: cell-based
[1] = tested on: Enterococcus faecium ATCC 8043; assay: In vitro antibiotic activity (MIC), agar dilution, brain heart infusion agar; conditions: ~10^4 organisms per spot, 37° C., ~20 hours
Method: (§1) Optical rotations were measured on a Perkin-Elmer Model 241 polarimeter in a 10 cm cell. Fast atom bombardment mass spectra were measured on a Kratos MS-50 mass spectrometer. Ultraviolet spectra were recorded on a Perkin-Elmer Lambda 3B UV-visible spectrophotometer and infrared spectra on a Nicolet model 60SX FT-IR attached to a Nicolet computer. NMR spectra were acquired on either a General Electric GN500 or GN300 spectrometer. […] Rf values reported were acquired on Analtech TLC plates developed with chloroform:methanol (9:1, v:v) and were visualized using ceric sulfate spray reagent. Melting points were determined on a Hoover Unimelt and are reported uncorrected. Minimal inhibitory concentrations were determined by twofold agar dilution. Brain heart infusion agar was used for aerobes and Wilkins-Chalgren agar for anaerobes.
(§2) For primary screening of compounds of the invention against selected aerobic microorganisms, minimal inhibitory concentrations (MICs) were determined by the following agar dilution method: Series of two-fold dilutions of the test compounds were added to brain heart infusion agar. The agar plates were inoculated with approximately 10^4 organisms per spot of each of the organisms to be tested. These inoculated agar plates were then incubated at 37° C. for approximately 20 hours. The MICs were determined as the minimal concentration of test compound (in […]) that inhibited visible growth.

Escherichia coli JUHL = assay: as above; conditions: ~10^4 organisms per spot, 37° C., ~20 hours
Method: as §1, §2

[2] = tested on: Staphylococcus aureus ATCC 6538P; assay: as above; conditions: ~10^4 organisms per spot, 37° C., ~20 hours
Method: as §1, §2

[3] = tested on: Staphylococcus epidermidis 3519; assay: as above; conditions: ~10^4 organisms per spot, 37° C., ~20 hours
Method: as §1, §2

[4] = tested on: Streptococcus pyogenes EES61; assay: as above; conditions: ~10^4 organisms per spot, 37° C., ~20 hours
Method: as §1, §2

[5] = tested on: Clostridium difficile 2532; assay: In vitro antibiotic activity (MIC) against anaerobes, agar dilution, Wilkins-Chalgren agar; conditions: anaerobe, ~10^5 organisms per spot, 37° C., ~48 hours
Method: as §1
as §2, with “anaerobic bacteria such as Clostridium,” for “selected aerobic microorganisms,”, “Wilkins-Chalgren” for “brain heart infusion”, “10^5” for “10^4”, “The” for “These”, “48” for “20”

[6] = tested on: Clostridium difficile ATCC 17857; assay: as above; conditions: anaerobe, ~10^5 organisms per spot, 37° C., ~48 hours
Method: as §1
as §2, with “anaerobic bacteria such as Clostridium,” for “selected aerobic microorganisms,”, “Wilkins-Chalgren” for “brain heart infusion”, “10^5” for “10^4”, “The” for “These”, “48” for “20”

[7] = tested on: Clostridium difficile ATCC 9689; assay: as above; conditions: anaerobe, ~10^5 organisms per spot, 37° C., ~48 hours
Method: as §1
as §2, with “anaerobic bacteria such as Clostridium,” for “selected aerobic microorganisms,”, “Wilkins-Chalgren” for “brain heart infusion”, “10^5” for “10^4”, “The” for “These”, “48” for “20”

[8] = tested on: Clostridium perfringes ATCC 13124; assay: microbe, parasite or virus in culture; conditions: anaerobe, ~10^5 organisms per spot, 37° C., ~48 hours
Method: as §1, with “Fast” for “Optical rotations were measured on a Perkin-Elmer Model 241 polarimeter in a 10 cm cell. Fast”
as §2, with “anaerobic bacteria such as Clostridium,” for “selected aerobic microorganisms,”, “Wilkins-Chalgren” for “brain heart infusion”, “10^5” for “10^4”, “The” for “These”, “48” for “20”

[9] = tested on: Bacteriodes thetaiotaomicron ATCC 29741; assay: In vitro antibiotic activity (MIC) against anaerobes, agar dilution, Wilkins-Chalgren agar; conditions: anaerobe, ~10^5 organisms per spot, 37° C., ~48 hours
Method: as §1
as §2, with “anaerobic bacteria such as Clostridium,” for “selected aerobic microorganisms,”, “Wilkins-Chalgren” for “brain heart infusion”, “10^5” for “10^4”, “The” for “These”, “48” for “20”

[10] = tested on: Bacteroides fragilis ATCC 25285; assay: as above; conditions: ATCC25285, anaerobe, ~10^5 organisms per spot, 37° C., ~48 hours
Method: as §1
as §2, with “anaerobic bacteria such as Clostridium,” for “selected aerobic microorganisms,”, “Wilkins-Chalgren” for “brain heart infusion”, “10^5” for “10^4”, “The” for “These”, “48” for “20”

bacterial pathogens = assay: In vitro activity against bacterial pathogens (summary in words); conditions: from Table 2
Method: Optical rotations were measured on a Perkin-Elmer Model 241 polarimeter in a 10 cm cell. Fast atom bombardment mass spectra were measured on a Kratos MS-50 mass spectrometer. Ultraviolet spectra were recorded on a Perkin-Elmer Lambda 3B UV-visible spectrophotometer and infrared spectra on a Nicolet model 60SX FT-IR attached to a Nicolet computer. NMR spectra were acquired on either a General Electric GN500 or GN300 spectrometer. NMR spectral data are reported in Table 1 (following Example 6 below). Rf values reported were acquired on Analtech TLC plates developed with chloroform:methanol (9:1, v:v) and were visualized using ceric sulfate spray reagent. Melting points were determined on a Hoover Unimelt and are reported uncorrected. Minimal inhibitory concentrations were determined by twofold agar dilution. Brain heart infusion agar was used for aerobes and Wilkins-Chalgren agar for anaerobes.
For primary screening of compounds of the invention against selected aerobic microorganisms, minimal inhibitory concentrations (MICs) were determined by the following agar dilution method: Series of two-fold dilutions of the test compounds were added to brain heart infusion agar. […] The MICs were determined as the minimal concentration of test compound (in […]) that inhibited visible growth. […]

[11] = Enterococcus faecium, ATCC8043, read-out: MIC
[12] = Escherichia coli, read-out: MIC
[13] = Staphylococcus aureus, ATCC6538P, read-out: MIC
[14] = Staphylococcus epidermidis, 3519, read-out: MIC
[15] = Streptococcus pyogenes, EES61, read-out: MIC
[16] = Clostridioides difficile, 2532, read-out: MIC
[17] = Clostridioides difficile, ATCC17857, read-out: MIC
[18] = Clostridioides difficile, ATCC9689, read-out: MIC
[19] = Clostridium, ATCC13124, read-out: MIC

“4'",6'"-didechloro-4'"-bromotiacumicin C [Ex. 6]” was tested, and the MIC [1] was 25 µg/mL, the MIC (Escherichia coli JUHL) was > 200 µg/mL and the MIC [2] was 50 µg/mL. The MIC [3] was 50 µg/mL, the MIC [4] was 50 µg/mL and the MIC [5] was 2 µg/mL. It also gave an MIC [6] of 1 µg/mL, an MIC [7] of 0.5 µg/mL and an MIC [8] of 0.06 µg/mL.

With `CCc1c(Br)c(O)c(Cl)c(O)c1C(=O)O[C@H]1[C@H](O)[C@H](OC)[C@H](OC/C2=C\C=C\C[C@H](O)/C(C)=C/[C@H](CC)[C@@H](O[C@@H]3OC(C)(C)[C@@H](OC(=O)C(C)C)[C@H](O)[C@@H]3O)/C(C)=C/C(C)=C/C[C@@H]([C@@H](C)O)OC2=O)O[C@@H]1C` [Ex. 3, 6'"-dechloro-6'"-bromotiacumicin B] the MIC [1, 11] was 6.2 µg/mL (≈ 5.62 µM), the MIC (Escherichia coli JUHL; [12]) was > 200 µg/mL and the MIC [2, 13] was 6.2 µg/mL (≈ 5.62 µM). The MIC [3, 14] was 6.2 µg/mL (≈ 5.62 µM), the MIC [4, 15] was 6.2 µg/mL (≈ 5.62 µM) and the MIC [9] was > 128 µg/mL. The MIC [10] was > 128 µg/mL, the MIC [5, 16] was 0.06 µg/mL (≈ 0.0544 µM) and the MIC [6, 17] was 0.06 µg/mL (≈ 0.0544 µM). For the same molecule, the MIC [7, 18] was 0.06 µg/mL (≈ 0.0544 µM), the MIC [8, 19] was 0.03 µg/mL (≈ 0.0272 µM) and the “potency among compounds of this invention” value (bacterial pathogens) was “the most potent of the compounds of this invention”. For the same molecule, the “potency compared with tiacumicin B” value (bacterial pathogens) was “quite comparable to tiacumicin B”.

`CCc1c(Br)c(O)c(Cl)c(O)c1C(=O)O[C@H]1[C@H](O)[C@H](OC)[C@H](OC/C2=C\C=C\C[C@H](O)/C(C)=C/[C@H](CC)[C@@H](O[C@@H]3OC(C)(C)[C@@H](OC(=O)C(C)C)[C@H](O)[C@@H]3O)/C(C)=C/C(C)=C/C[C@@H](C(C)=O)OC2=O)O[C@@H]1C` [Ex. 4, 6'"-dechloro-6'"-bromo-18-ketotiacumicin B] was tested, and the MIC [1, 11] was 50 µg/mL (≈ 45.4 µM), the MIC (Escherichia coli JUHL; [12]) was > 200 µg/mL and the MIC [2, 13] was 50 µg/mL (≈ 45.4 µM). For the same molecule, the MIC [3, 14] was 100 µg/mL (≈ 90.9 µM), the MIC [4, 15] was 50 µg/mL (≈ 45.4 µM) and the MIC [9] was > 128 µg/mL. For the same molecule, the MIC [10] was > 128 µg/mL, the MIC [5, 16] was 1 µg/mL (≈ 0.909 µM) and the MIC [6, 17] was 0.25 µg/mL (≈ 0.227 µM). For the same molecule, the MIC [7, 18] was 0.25 µg/mL (≈ 0.227 µM) and the MIC [8, 19] was 0.015 µg/mL (≈ 0.0136 µM).

For “4'",6'"-didechloro-4'"-bromotiacumicin B [Ex. 5]”, the MIC [1] was 12.5 µg/mL, the MIC (Escherichia coli JUHL) was > 200 µg/mL and the MIC [2] was 6.2 µg/mL. It also gave an MIC [3] of 12.5 µg/mL, an MIC [4] of 25 µg/mL and an MIC [5] of 0.5 µg/mL. For the same molecule, the MIC [6] was 0.25 µg/mL, the MIC [7] was 0.12 µg/mL and the MIC [8] was “<= 0.06 μg/mL”.
